We go through 14 compounds from US9409952B2, “Peptide-compound cyclization method” (Chugai Seiyaku Kabushiki Kaisha, priority 2011, dated 2016).

Read-outs that look alike come from different tables or passages of the source. Starred links: 1 amine or outer side, 2 acyl side, 3 side chain; linkers in the order of their positions; H or OH if unused. Positions of bridges follow the written chain, without caps; N, C: chain ends. Non-standard residues stand in square brackets, D forms with d. Residues, ends and D or L forms follow the SMILES beside them. ξ: configuration not given here. *: point of attachment. NMeF = CN[C@@H](Cc1ccccc1)C(=O)O; NMeI = CC[C@H](C)[C@H](NC)C(=O)O; NMeβAla = CN(CCC(=O)[*:2])[*:1]; NMeL = CN[C@@H](CC(C)C)C(=O)O; Thr(3ξ) = CC(O)[C@H](N)C(=O)O; NMeA = CN[C@@H](C)C(=O)O; Piperidide = C1CCN(*)CC1; dNMeA = CN[C@H](C)C(=O)O; Sar = CNCC(=O)O; tBu = CC(C)(C)*

Data set [1] can be described thus: PAMPA (parallel artificial membrane permeability assay). It is filed as in vitro ADME. To be noted: PAMPA. A digest of the protocol:
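Artificial membrane was 10% (w/v) egg lecithin plus 0.5% (w/v) cholesterol in dodecane on a PVDF filter. A 10 mM DMSO stock was added at 0.5% (v/v) to donor buffer (50 mM MOPSO, pH 6.5, 5.0% glycocholic acid). After 18 h at 37 °C, LC/MS or LC/UV gave donor and acceptor levels for Pe.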
(The PAMPA barrier holds no transporters, so it reflects passive diffusion.)

The nature of data set [2]: Metabolic stability in human hepatic microsome. The data set is classed as in vitro ADME. To be noted: microsomes.
Where [3] appears, read: membrane permeation rate (Pe), 50 mM MOPSO buffer pH 6.5 with 5.0% glycocholic acid, 37° C., 18 hours, read-out: iPAMPA Pe.
The mark [4] stands for this setting: pH 7.4, human hepatic microsome, NADPH(+), read-out: CL NADPH(+).

`CC[C@H](C)[C@H]1C(=O)N[C@@H](C)C(=O)N(C)[C@@H](CC(C)C)C(=O)N(C)[C@@H](Cc2ccccc2)C(=O)N[C@@H]([C@@H](C)O)C(=O)N(C)[C@@H](Cc2ccccc2)C(=O)N(C)[C@@H](CC(C)C)C(=O)N(C)[C@@H](CC(C)C)C(=O)N[C@H](C(=O)N2CCCCC2)CC(=O)N(C)CC(=O)N1C` [DP-147] ([Sar][NMeI]A[NMeL][NMeF]T[NMeF][NMeL][NMeL]D-Piperidide; lactam N-10) registered a Papp at 18 hours, 50 µM in data set [1] (pH 6.5) of 29 ×10⁻⁶ cm/s. The microsomal CLint at 1 uM in data set [2] (human, pH 7.4, CL NADPH(+)) stood at 147 µL/min/mg.

Compound `CC(C)C[C@H]1C(=O)N[C@@H](COC(C)(C)C)C(=O)N[C@H](C(=O)N2CCCCC2)CC(=O)N[C@H](C)C(=O)N(C)[C@@H](C)C(=O)N(C)[C@@H](Cc2ccccc2)C(=O)N(C)[C@@H](CC(C)C)C(=O)N[C@@H]([C@@H](C)O)C(=O)N(C)[C@@H](C)C(=O)N1C` [DP-148] ([dA][NMeA][NMeF][NMeL]T[NMeA][NMeL]S(tBu)D-Piperidide; lactam N-9) returned a Papp at 18 hours, 50 µM in data set [1] (pH 6.5) of 31 ×10⁻⁶ cm/s. In addition, in data set [2] (human, pH 7.4, CL NADPH(+)), the microsomal CLint at 1 uM came to 69 µL/min/mg.

As for `CC(C)C[C@H]1C(=O)N[C@@H]([C@@H](C)O)C(=O)N(C)[C@@H](C)C(=O)N[C@H](C(=O)N2CCCCC2)CC(=O)N(C)[C@@H](C)C(=O)N[C@@H](C)C(=O)N(C)[C@@H](Cc2ccccc2)C(=O)N(C)[C@@H](CC(C)C)C(=O)N[C@@H](Cc2ccccc2)C(=O)N1C` [DP-150] ([NMeA]A[NMeF][NMeL]F[NMeL]T[NMeA]D-Piperidide; lactam N-9), the Papp at 18 hours, 50 µM in data set [1] (setting [3]) was found to be 33 ×10⁻⁶ cm/s. Also, the microsomal CLint at 1 uM in data set [2] (setting [4]) was 701 µL/min/mg.

Turning to `CC(C)C[C@H]1C(=O)N(C)[C@@H](CC(C)C)C(=O)N(C)CC(=O)N(C)[C@@H](Cc2ccccc2)C(=O)N[C@@H](C)C(=O)N(C)[C@@H](Cc2ccccc2)C(=O)N(C)[C@@H](CC(C)C)C(=O)N[C@@H]([C@@H](C)O)C(=O)N[C@H](C(=O)N2CCCCC2)CC(=O)N[C@H](C(C)C)C(=O)N(C)[C@@H](C)C(=O)N1C` [DP-151] ([dV][NMeA][NMeL][NMeL][Sar][NMeF]A[NMeF][NMeL]TD-Piperidide; lactam N-11), in data set [1] (setting [3]), the Papp at 18 hours, 50 µM amounted to 27 ×10⁻⁶ cm/s. Also, in data set [2] (setting [4]), the microsomal CLint at 1 uM worked out at 30 µL/min/mg.

Turning to `CC[C@H](C)[C@H]1C(=O)N[C@H](C(=O)N2CCCCC2)CC(=O)N(C)[C@@H](C)C(=O)N(C)[C@@H](CC(C)C)C(=O)N(C)[C@@H](Cc2ccccc2)C(=O)N[C@@H]([C@@H](C)O)C(=O)N(C)CC(=O)N(C)[C@@H](CC(C)C)C(=O)N[C@@H](COC(C)(C)C)C(=O)N1C` [DP-152] ([NMeA][NMeL][NMeF]T[Sar][NMeL]S(tBu)[NMeI]D-Piperidide; lactam N-9), in data set [1] (setting [3]), the Papp at 18 hours, 50 µM worked out at 61 ×10⁻⁶ cm/s. Also, the microsomal CLint at 1 uM in data set [2] (setting [4]) was 93 µL/min/mg.

As to `CC(C)C[C@H]1C(=O)N(C)[C@@H](Cc2ccccc2)C(=O)N(C)[C@@H](CC(C)C)C(=O)N[C@@H](Cc2ccccc2)C(=O)N[C@@H]([C@@H](C)O)C(=O)N(C)[C@@H](C)C(=O)N[C@H](C(=O)N2CCCCC2)CC(=O)N(C)CCC(=O)N[C@@H](C)C(=O)N1C` [DP-153] ([NMeβAla]A[NMeL][NMeF][NMeL]FT[NMeA]D-Piperidide; lactam N-9), the Papp at 18 hours, 50 µM in data set [1] (setting [3]) was 26 ×10⁻⁶ cm/s. In addition, in data set [2] (setting [4]), the microsomal CLint at 1 uM was 179 µL/min/mg.

As for `CC[C@H](C)[C@H]1C(=O)N[C@H](C(=O)N2CCCCC2)CC(=O)N(C)CCC(=O)N(C)[C@@H](Cc2ccccc2)C(=O)N(C)[C@@H](CC(C)C)C(=O)N[C@@H]([C@@H](C)O)C(=O)N(C)CC(=O)N(C)[C@@H](CC(C)C)C(=O)N[C@@H](COC(C)(C)C)C(=O)N1C` [DP-155] ([NMeβAla][NMeF][NMeL]T[Sar][NMeL]S(tBu)[NMeI]D-Piperidide; lactam N-9), the Papp at 18 hours, 50 µM in data set [1] (pH 6.5) turned out to be 55 ×10⁻⁶ cm/s. For the same compound, the microsomal CLint at 1 uM in data set [2] (human, pH 7.4, CL NADPH(+)) came to 101 µL/min/mg.

`CC(C)C[C@H]1C(=O)N(C)[C@@H](Cc2ccccc2)C(=O)N[C@@H](Cc2ccccc2)C(=O)N(C)[C@@H](CC(C)C)C(=O)N[C@@H]([C@@H](C)O)C(=O)N(C)[C@@H](C)C(=O)N[C@H](C(=O)N2CCCCC2)CC(=O)N(C)[C@H](C)C(=O)N[C@@H](C)C(=O)N1C` [DP-157] ([dNMeA]A[NMeL][NMeF]F[NMeL]T[NMeA]D-Piperidide; lactam N-9): the Papp at 18 hours, 50 µM in data set [1] (setting [3]) was 27 ×10⁻⁶ cm/s. In addition, the microsomal CLint at 1 uM in data set [2] (setting [4]) was 368 µL/min/mg.

As for `CC(C)C[C@H]1C(=O)N(C)[C@@H](Cc2ccccc2)C(=O)N(C)[C@@H](Cc2ccccc2)C(=O)N[C@@H]([C@@H](C)O)C(=O)N(C)[C@@H](C)C(=O)N(C)[C@@H](CC(C)C)C(=O)N[C@H](C(=O)N2CCCCC2)CC(=O)N(C)[C@@H](C)C(=O)N(C)[C@@H](CC(C)C)C(=O)N(C)[C@@H](CC(C)C)C(=O)N[C@@H](C)C(=O)N1C` [DP-158] ([NMeA][NMeL][NMeL]A[NMeL][NMeF][NMeF]T[NMeA][NMeL]D-Piperidide; lactam N-11), in data set [1] (setting [3]), the Papp at 18 hours, 50 µM was 49 ×10⁻⁶ cm/s. In data set [2] (setting [4]), the microsomal CLint at 1 uM was found to be 41 µL/min/mg.

Regarding `CC[C@H](C)[C@@H]1NC(=O)CCN(C)C(=O)C[C@@H](C(=O)N2CCCCC2)NC(=O)[C@H](Cc2ccccc2)N(C)C(=O)[C@H](CC(C)C)N(C)C(=O)[C@H](C)N(C)C(=O)[C@H](Cc2ccccc2)N(C)C(=O)[C@H]([C@@H](C)O)NC(=O)[C@H](CC(C)C)N(C)C(=O)[C@H](C)N(C)C(=O)[C@H](CC(C)C)N(C)C1=O` [DP-159] ([NMeβAla]I[NMeL][NMeA][NMeL]T[NMeF][NMeA][NMeL][NMeF]D-Piperidide; lactam N-11), the Papp at 18 hours, 50 µM in data set [1] (setting [3]) came to 39 ×10⁻⁶ cm/s. The microsomal CLint at 1 uM in data set [2] (setting [4]) was determined as 54 µL/min/mg.

Regarding `CC(C)C[C@H]1C(=O)N[C@@H](COC(C)(C)C)C(=O)N[C@H](C(=O)N2CCCCC2)CC(=O)N(C)[C@H](C)C(=O)N(C)[C@@H](C)C(=O)N(C)[C@@H](Cc2ccccc2)C(=O)N(C)[C@@H](CC(C)C)C(=O)N[C@@H]([C@@H](C)O)C(=O)N(C)[C@@H](C)C(=O)N1C` [DP-160] ([dNMeA][NMeA][NMeF][NMeL]T[NMeA][NMeL]S(tBu)D-Piperidide; lactam N-9), the Papp at 18 hours, 50 µM in data set [1] (setting [3]) turned out to be 37 ×10⁻⁶ cm/s. In addition, in data set [2] (setting [4]), the microsomal CLint at 1 uM came out at 68 µL/min/mg.

On to `CC(C)C[C@H]1C(=O)N[C@@H](Cc2ccccc2)C(=O)N[C@@H]([C@@H](C)O)C(=O)N(C)[C@@H](C)C(=O)N[C@H](C(=O)N2CCCCC2)CC(=O)N(C)CC(=O)N[C@@H](C)C(=O)N(C)[C@@H](Cc2ccccc2)C(=O)N(C)[C@@H](CC(C)C)C(=O)N1C` [DP-161] ([Sar]A[NMeF][NMeL][NMeL]FT[NMeA]D-Piperidide; lactam N-9), for which the Papp at 18 hours, 50 µM in data set [1] (setting [3]) amounted to 26 ×10⁻⁶ cm/s. In addition, the microsomal CLint at 1 uM in data set [2] (setting [4]) was found to be 194 µL/min/mg.

Regarding `CC[C@H](C)[C@@H]1NC(=O)[C@H](CC(C)C)N(C)C(=O)[C@H](Cc2ccccc2)NC(=O)[C@@H](C)N(C)C(=O)C[C@@H](C(=O)N2CCCCC2)NC(=O)[C@H](Cc2ccccc2)NC(=O)[C@H](C(C)O)NC(=O)[C@@H]2CCCN2C(=O)[C@H](CC(C)C)N(C)C(=O)CNC(=O)[C@H](CC(C)C)N(C)C1=O` (stereo partly shown) [DP-162] ([dNMeA]F[NMeL]I[NMeL]G[NMeL]P[Thr(3ξ)]FD-Piperidide; lactam N-11), in data set [1] (setting [3]), the Papp at 18 hours, 50 µM was determined as 35 ×10⁻⁶ cm/s. Further, in data set [2] (setting [4]), the microsomal CLint at 1 uM is 90 µL/min/mg.

For the compound `CC(C)C[C@H]1C(=O)N[C@@H](COC(C)(C)C)C(=O)N[C@H](C(=O)N2CCCCC2)CC(=O)N(C)CC(=O)N(C)[C@@H](Cc2ccccc2)C(=O)N(C)[C@@H](C)C(=O)N(C)[C@@H](CC(C)C)C(=O)N[C@@H]([C@@H](C)O)C(=O)N(C)[C@@H](C)C(=O)N1C` [DP-163] ([Sar][NMeF][NMeA][NMeL]T[NMeA][NMeL]S(tBu)D-Piperidide; lactam N-9), in data set [1] (setting [3]), the Papp at 18 hours, 50 µM turned out to be 23 ×10⁻⁶ cm/s. Further, the microsomal CLint at 1 uM in data set [2] (setting [4]) was found to be 68 µL/min/mg.
